Patent US20250195673A1 (priority 2020, published 2025)

Biological target: human NTSR1 (Homo sapiens, UniProt P30989)
Sequence (P30989 whole entry): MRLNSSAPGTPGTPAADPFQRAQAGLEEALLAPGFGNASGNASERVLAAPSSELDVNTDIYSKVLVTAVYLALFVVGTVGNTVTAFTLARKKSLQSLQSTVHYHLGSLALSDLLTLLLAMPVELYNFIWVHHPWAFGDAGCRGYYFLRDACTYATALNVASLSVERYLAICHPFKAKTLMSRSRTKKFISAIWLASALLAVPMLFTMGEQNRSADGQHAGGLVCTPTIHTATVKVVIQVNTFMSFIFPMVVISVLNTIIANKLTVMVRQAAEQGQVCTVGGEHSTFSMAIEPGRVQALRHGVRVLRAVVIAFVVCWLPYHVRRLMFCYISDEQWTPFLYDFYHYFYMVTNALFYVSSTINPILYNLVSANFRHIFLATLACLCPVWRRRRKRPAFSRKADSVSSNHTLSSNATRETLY

With murine transferrin [mTf] the IP1 accumulation was “not”.
